{"source": "patent US8993622B2", "about": "“Antiviral compounds” (Eirium AB, priority 2010, dated 2015)", "key": {"RCAd11pGFP vector": {"test_system": "RCAd11pGFP vector", "assay": "Screening assay: GFP expression from RCAd11pGFP vector in K562 cells", "format": "cell-based", "settings": "Human adenovirus sp., K562, 24 h, read-out: 50% inhibitory concentration (IC50), inhibition of GFP expression", "source_text": "The screening assay is based on GFP expression from the RCAd11pGFP vector in a K562 cell system. […] To be considered as a potential hit, the compound had to decrease the intensity of fluorescence by more than 80% and kill no more than 50% of the cells. […] None of the compounds selected for further study were autofluorescent.\nTo verify the hits and to exclude false positives, the compounds were serially diluted in 7 steps for dose-response analysis using the screening assay. […] Twenty-four compounds met these criteria. The distribution of fluorescence inhibition and cellular toxicity detected in the screening process of these 24 hits is summarized in FIG. 1. One of the most efficient and least toxic compounds was A02, 2-[[2-(benzoylamino)benzoyl]amino]-benzoic acid. This compound was evaluated further as a potential drug candidate."}, "Ad31 (A)": {"test_system": "Ad31 (A)", "assay": "Quantitative real-time PCR of adenovirus DNA replication in A549 cells (Ad31)", "format": "cell-based", "settings": "Human adenovirus sp., read-out: % inhibition of DNA replication (SD)", "protocol": "(§1) Approximately 1×10^5 A549 cells were seeded in 24-well plates (Nunc) on the day before infection. On the day of infection, the cells in one well were counted to establish the amount of virions to be added. The growth medium was removed and compound and virus were added simultaneously to the cells in 700 μl DMEM with 0.75 g/l NaHCO3, 20 mM HEPES, 1×PEST, and 1% FBS. Compounds were added in concentrations ranging from 0.5 μM to 15 μM. The final concentration of DMSO was less than 1% in all samples. One pg of Ad virions was added per cell. The plate was incubated at 37° C. in 5% CO2 and 24 h after infection the cells were harvested, washed once, and resuspended in PBS. […] The design of primers and probes for analysis of various Ad types representing different adenovirus species with quantitative PCR has been described previously (Allard et al. 2001. Rapid typing of human adenoviruses by a general PCR combined with restriction endonuclease analysis. Journal Clinical Microbiology 39:498-505). Briefly, quantitative real-time PCR was carried out using a degenerate primer pair, Kadgen1 (forward)—Kadgen 2 (reverse) (5′-CWT ACA TGC ACA TCK CSG G-3′—SEQ ID NO:1, and 5′-CRC GGG CRA AYT GCA CCA G-3′—SEQ ID NO:2, respectively); DNA technology A/S, Aarhus, Denmark). […] Real-time PCR was performed in an ABI PRISM 7700 Sequence Detector (Applied Biosystems) and analyzed with Sequence Detector v1.7a software."}, "Ad37 (D)": {"test_system": "Ad37 (D)", "assay": "Quantitative real-time PCR of adenovirus DNA replication in A549 cells (Ad37)", "format": "cell-based", "settings": "Human adenovirus sp., read-out: % inhibition of DNA replication (SD)", "protocol": "as §1"}, "Ad4 (E)": {"test_system": "Ad4 (E)", "assay": "Quantitative real-time PCR of adenovirus DNA replication in A549 cells (Ad4)", "format": "cell-based", "settings": "Human adenovirus sp., read-out: % inhibition of DNA replication (SD)", "protocol": "as §1"}, "Ad5 hexon protein": {"test_system": "Ad5 hexon protein", "assay": "FACS analysis of Ad5 hexon protein expression in A549 cells", "format": "cell-based, human adenovirus", "settings": "24 h", "protocol": "FIG. 4. A. Binding of ^35S-labelled Ad5 to A549 cells in the presence of A02. Error bars represent the standard deviation of the means from three independent duplicate experiments. B. Flowcytometry assay detecting Ad5 (grey bars) and Ad11 (checkered bars) hexon protein following 24 h incubation with virus and compound A02. Error bars represent the standard deviation of the means from two independent duplicate experiments.\nA binding assay using isotope-labeled virions was used to address whether the compound would prevent viral adhesion to host cells. At 15 μM, compound A02 has no effect on Ad5 binding to the surface of A549 cells (FIG. 4A). To further verify inhibition of viral replication, the effect on the expression of the most abundant viral structural protein (hexon) in A549 cells was studied by FACS analysis."}}}
{"molecule": "O=C(Nc1ccccc1C(=O)Nc1ccccc1C(=O)O)c1ccccc1", "note": "[Compound A02, 2-[[2-(Benzoylamino)benzoyl]amino]-benzoic acid]", "values": [{"measurement": "IC50", "setting": "RCAd11pGFP vector", "value": 28.6, "unit": "µM"}, {"measurement": "inhibition at 5 µM", "setting": "Ad31 (A); 5 μM", "value": 86, "unit": "%"}, {"measurement": "inhibition at 15 µM", "setting": "Ad31 (A); 15 μM", "value": 98, "unit": "%"}, {"measurement": "inhibition at 5 µM", "setting": "Ad37 (D); 5 μM", "value": 86, "unit": "%"}, {"measurement": "inhibition at 15 µM", "setting": "Ad37 (D); 15 μM", "value": 94, "unit": "%"}, {"measurement": "inhibition at 5 µM", "setting": "Ad4 (E); 5 μM", "value": 85, "unit": "%"}, {"measurement": "inhibition at 15 µM", "setting": "Ad4 (E); 15 μM", "value": 96, "unit": "%"}, {"measurement": "expression of Ad5 hexon protein", "setting": "Ad5 hexon protein", "value": "inhibited by compound A02 in a dose-dependent manner"}]}
